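Test compounds were applied to cells in 96-well plates for 48 hours at 5 doses. Here, GI50 denotes the concentration required for 50% inhibition of growth.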 The source made the active and inactive calls. No stated cut-off is given here; in the data, active = GI50 up to about 1.1 µM and inactive = higher.
How the values were obtained:
Assay in all cases: DTP human tumour cell line panel, 48 h
SF-268 = test system: SF-268
786-0 = test system: 786-0
MDA-N = test system: MDA-N
SNB-19 = test system: SNB-19
OVCAR-5 = test system: OVCAR-5
TK-10 = test system: TK-10
COLO 205 = test system: COLO 205
XF498 = test system: XF498
Malme-3M = test system: Malme-3M
NCI-H226 = test system: NCI-H226
RPMI-8226 = test system: RPMI-8226
EKVX = test system: EKVX
T47D = test system: T47D
DLD-1 = test system: DLD-1
OVCAR-4 = test system: OVCAR-4
U-251 = test system: U-251
KM-20L2 = test system: KM-20L2
OVCAR-3 = test system: OVCAR-3
DMS-114 = test system: DMS-114
MDA-MB-435 = test system: MDA-MB-435
A498 = test system: A498
SK-MEL-28 = test system: SK-MEL-28
Hs-578T = test system: Hs-578T
PC-3 = test system: PC-3
RXF 393 = test system: RXF 393
NCI-H460 = test system: NCI-H460
HOP-92 = test system: HOP-92
SNB-78 = test system: SNB-78
SK-OV-3 = test system: SK-OV-3
HCC 2998 = test system: HCC 2998
OVCAR-8 = test system: OVCAR-8
HCT-116 = test system: HCT-116
UACC-62 = test system: UACC-62
MCF7 = test system: MCF7
SW-620 = test system: SW-620
SK-MEL-2 = test system: SK-MEL-2
SK-MEL-5 = test system: SK-MEL-5
SF-295 = test system: SF-295
HCT-15 = test system: HCT-15
SN12C = test system: SN12C
UO-31 = test system: UO-31
DU-145 = test system: DU-145
KM12 = test system: KM12
HOP-62 = test system: HOP-62
M19-MEL = test system: M19-MEL
SNB-75 = test system: SNB-75
CCRF-CEM = test system: CCRF-CEM
IGROV-1 = test system: IGROV-1
M14 = test system: M14
HT-29 = test system: HT-29
NCI/ADR-RES = test system: NCI/ADR-RES
DMS-273 = test system: DMS-273
HOP-18 = test system: HOP-18
RXF 631 = test system: RXF 631
MDA-MB-231 = test system: MDA-MB-231
SF-539 = test system: SF-539
NCI-H522 = test system: NCI-H522
HL-60 = test system: HL-60
NCI-H23 = test system: NCI-H23
SR = test system: SR
K562 = test system: K562
CAKI-1 = test system: CAKI-1
LXFL 529 = test system: LXFL 529
A549 = test system: A549
ACHN = test system: ACHN

With `Cc1ccc2oc(=O)c3c(O)c4cccc(OC5OC(C)C6O[C@@H](c7ccccc7)OC6C5OC5OC(C)C(O)C(O)C5O)c4c4oc(=O)c1c2c34` (stereo not given in full) the GI50 (SF-268) was 54.5 nM (active), the GI50 (786-0) was 38.9 nM (active) and the GI50 (MDA-N) was 121 nM (active). For the same compound, the GI50 (SNB-19) was 334 nM (active), the GI50 (OVCAR-5) was 162 nM (active) and the GI50 (TK-10) was 392 nM (active). For the same compound, the GI50 (COLO 205) was 67.5 nM (active), the GI50 (XF498) was 48.6 nM (active) and the GI50 (Malme-3M) was 441 nM (active). The GI50 (NCI-H226) was 32.7 nM (active), the GI50 (RPMI-8226) was 36.6 nM (active) and the GI50 (EKVX) was 461 nM (active). For the same compound, the GI50 (T47D) was 58.5 nM (active), the GI50 (DLD-1) was 156 nM (active) and the GI50 (OVCAR-4) was 320 nM (active). For the same compound, the GI50 (U-251) was 53.5 nM (active), the GI50 (KM-20L2) was 35.4 nM (active) and the GI50 (OVCAR-3) was 85.7 nM (active). The GI50 (DMS-114) was 262 nM (active), the GI50 (MDA-MB-435) was 270 nM (active) and the GI50 (A498) was 27.4 nM (active). For the same compound, the GI50 (SK-MEL-28) was 159 nM (active), the GI50 (Hs-578T) was 119 nM (active) and the GI50 (PC-3) was 95.5 nM (active). For the same compound, the GI50 (RXF 393) was 187 nM (active), the GI50 (NCI-H460) was < 31.6 nM (active) and the GI50 (HOP-92) was 843 nM (active). For the same compound, the GI50 (SNB-78) was 708 nM (active), the GI50 (SK-OV-3) was 200 nM (active) and the GI50 (HCC 2998) was 44.2 nM (active). For the same compound, the GI50 (OVCAR-8) was < 21.5 nM (active), the GI50 (HCT-116) was < 17.1 nM (active) and the GI50 (UACC-62) was 44.9 nM (active). The GI50 (MCF7) was 32.4 nM (active), the GI50 (SW-620) was 48.6 nM (active) and the GI50 (SK-MEL-2) was 196 nM (active). For the same compound, the GI50 (SK-MEL-5) was 50.9 nM (active), the GI50 (SF-295) was 30.3 nM (active) and the GI50 (HCT-15) was 553 nM. The GI50 (SN12C) was 51 nM (active), the GI50 (UO-31) was 1140 nM (inactive) and the GI50 (DU-145) was 174 nM (active). For the same compound, the GI50 (KM12) was 78.5 nM (active), the GI50 (HOP-62) was 45.2 nM (active) and the GI50 (M19-MEL) was 110 nM (active). For the same compound, the GI50 (SNB-75) was 49.2 nM (active), the GI50 (CCRF-CEM) was 18.2 nM (active) and the GI50 (IGROV-1) was 26.4 nM (active). The GI50 (M14) was 187 nM (active), the GI50 (HT-29) was 47.2 nM (active) and the GI50 (NCI/ADR-RES) was 3660 nM (inactive). For the same compound, the GI50 (DMS-273) was 27.8 nM (active), the GI50 (HOP-18) was 466 nM (active) and the GI50 (RXF 631) was 45.6 nM (active). The GI50 (MDA-MB-231) was 197 nM (active), the GI50 (SF-539) was 57.1 nM (active) and the GI50 (NCI-H522) was 57.4 nM (active). The GI50 (HL-60) was 53.6 nM (active), the GI50 (NCI-H23) was 49.2 nM (active) and the GI50 (SR) was < 11 nM (active). For the same compound, the GI50 (K562) was 40.4 nM (active), the GI50 (CAKI-1) was 138 nM (active) and the GI50 (LXFL 529) was 59.4 nM (active). The GI50 (A549) was 35.4 nM (active) and the GI50 (ACHN) was 27 nM (active).
